# Results from patent US11066395B2, “Dimethylaminoethanol salt of a GLP-1 receptor modulator” (RECEPTOS LLC, priority 2016, dated 2021).
# Structures can show the parent of a compound that is named as a salt. Where two headings read alike, the source gives them in different places. Marks after values point to notes of the source that are not given here.
# Columns and labels:
# [1] = counterion base; cited from earlier work
# [2] = Stress testing of dimethylaminoethanol salt (40° C./75% RH and 80° C./ambient, 1 week), XRPD and HPLC; format: physicochemical
# Experimental: To better understand the physical and chemical stability of the dimethylaminoethanol salt, the salt was placed under stressed condition (40° C./75% RH and 80° C./Ambient) for 1 week. The solids were then removed and analyzed via both XRPD and HPLC to determine physical and chemical stability, respectively.
# [3] = pH solubility curve (buffers pH 1-pH 8, deionized water); format: physicochemical
# Experimental: A range of buffers were made up (pH 1-pH 8) to understand the effect of pH on the measured solubility. In each case the pH is measured prior to isolation to ensure most accurate data. […] All solids were characterized by XRPD post solubility determination and shown all to be amorphous (FIG. 44), which is common when a solid is placed into aqueous conditions.
# [4] = Hygroscopicity by DVS/GVS with XRPD post GVS; format: physicochemical
# Description: To determine the hygroscopicity of the dimethylaminoethanol salt the sample was submitted for DVS (FIG. 39).
# The thermal event likely corresponds to the melt of the crystalline material.
# [5] = Hydration study: slurry in aqueous solvents containing 10% by volume of water, XRPD; format: physicochemical; conditions: acetone, acetonitrile or methanol/water 90/10 by volume
# Experimental: To understand the potential of forming hydrates the dimethylaminoethanol salt was slurried in a series of aqueous solvents, containing 10% by volume of water.
# When the solids were analyzed by XRPD post hydration study (FIG. 41), the majority of solids had been rendered amorphous. Only the acetone/water mixture had any signs of crystallinity, which corresponded to the input material. […] The generation of amorphous material could be due to the high affinity of the molecule (RP-101) with solvents and water.
# [6] = Thermodynamic solubility testing in pH 6.8 phosphate buffer; format: physicochemical; conditions: for solubility at 24 h: phosphate buffer, pH 6.8, aqueous buffer, thermodynamic from solid
# Experimental: 0.5 mL of that buffer is then added to 5-10 mg of each crystalline salt hit. The pH of the resultant slurries are measured after 10 minutes and, if needed, adjusted back to pH 6.8 using the individual buffer component. Samples were stirred at room temperature for 24 hours, filtered, and analyzed for concentration by HPLC.
# [7] = Salt screen: storage of salts at 40° C./75% RH for 7 days, re-analysis by XRPD
# Experimental: These resultant suspensions were temperature cycled between ambient temperature (22° C.) and 40° C. in 4 hour cycles for 72 hours. Samples were analyzed by XRPD and any remaining solid was isolated by filtration using a centrifuge and tubes with a 0.45 m filter insert. Isolated solids were allowed to dry at ambient condition and analyzed by ^1H NMR.
smiles,measurement,setting,value
C[N+](C)(C)CCO.[OH-] [Choline hydroxide],LogP,[1],−3.70
same,pKa 1,[1],11.00
NCCCC[C@H](N)C(=O)O [L-Lysine],LogP,[1],−1.04
same,pKa 3,[1],2.16*
"CNC[C@H](O)[C@@H](O)[C@H](O)[C@H](O)CO [N-Methylglucamine, (2R,3R,4R,5S)-6-(methylamino)hexane-1,2,3,4,5-pentaol]",LogP,[1],−3.37
"CCC1CCC(C2CC=C(c3cnc(-c4ccc(CC(NC(=O)c5ccc(C(C)(C)C)s5)C(=O)N5CC(C(=O)O)C5)cc4)nc3)CC2)CC1 (centres unmarked) [deanol-RP-101, 2-hydroxy-N,N-dimethylethanaminium 1-(2-(5-(tert-butyl)-thiophene-2-carboxamido)-3-(4-(5-(4′-ethyl-[1,1′-bi(cyclohexan)]-3-en-4-yl)-pyrimidin-2-yl)phenyl)propanoyl)azetidine-3-carboxylate salt]",Crystalline form by XRPD post stability (physical stability),[2]; 40° C./75% RH,same crystalline form was present
same,Crystallinity by XRPD post stability,[2]; 40° C./75% RH,decrease in crystallinity
same,Purity by HPLC post stress (chemical stability),[2]; 40° C./75% RH,97.3%
same,Crystalline form by XRPD post stability (physical stability),[2]; 80° C./ambient,same crystalline form was present
same,Purity by HPLC post stress (chemical stability),[2]; 80° C./ambient,96.8%
same,Solubility,[3]; acidic conditions,low
same,Solubility,[3]; basic conditions,rises significantly
same,Solubility,[3]; deionized water,relatively high
same,Hygroscopicity (DVS/GVS),[4],the process was reversible and did not indicate the conversion to a hydrate
same,XRPD post GVS compared to input material,[4],no change seen
same,Hydrate formation (XRPD post hydration study),[5],no obvious hydrate
CCC1CCC(C2CC=C(c3cnc(-c4ccc(CC(NC(=O)c5ccc(C(C)(C)C)s5)C(=O)N5CC(C(=O)O)C5)cc4)nc3)CC2)CC1 (centres unmarked) [meglumine-RP-101],Solubility,"[6]; aqueous, pH 6.8 phosphate buffer, room temperature, 24 hours, HPLC, listed as Meglumine (DCM)",0.160 mg/mL
same,solubility at 24 h,"[6]; aqueous, pH 6.8 phosphate buffer, room temperature, 24 hours, HPLC, read-out: Solubility",303 µg/mL
same,solubility at 24 h,"[6]; material obtained from 1,4-dioxane, read-out: Solubility at pH 6.8",303 µg/mL
same,solubility at 24 h,"[6]; material obtained from DCM, read-out: Solubility at pH 6.8",160 µg/mL
same,Stability at 40° C./75% RH (XRPD),"[7]; material obtained from 1,4-dioxane",Only small changes
same,Stability at 40° C./75% RH (XRPD),[7]; material obtained from DCM,decrease in crystallinity
same,Stability at 40° C./75% RH (XRPD),[7]; material obtained from MEK,Only small changes
